Among the data in patent US20200246403A1, “YEAST EXTRACT HAVING DIABETES PREVENTION EFFECT” (MITSUBISHI CORPORATION LIFE SCIENCES LIMITED, priority 2016, published 2020) are Glucose uptake activity values, retold here.

In this assay the test system is rat myoblasts (L6 cells). Nature of the assay: Measurement of glucose uptake activity in rat myoblasts (L6 cells), 2-NBDG fluorescence. Format: cell-based. To be noted: insulin final concentration 100 nM (positive control), 100 μM 2-NBDG, 20 minutes. How it is done:
Test 1: Measurement of Glucose Uptake Activity in Rat Myoblasts (L6 Cells)
L6 cells were seeded (1×10^4 cells/well) in a 96-well plate with a D-MEM medium (Dulbecco/Vogt modified Eagle's minimal essential medium) containing 10% fetal bovine serum, and pre-cultured for 48 hours (5% CO2, 37° C.) Then, the medium was replaced with a D-MEM medium containing 2% horse serum and culture was performed for 96 hours (5% CO2, 37° C.) to induce differentiation. Subsequently, the medium was replaced with a serum-free D-MEM medium, and synchronous culture was performed for 4 hours (5% CO2, 37° C.). Thereafter, the wells were washed with a KRPH buffer (Krebs Ringer Phosphate Hepes buffer), and 100 μL of a sample solution (final concentration 1 mg/mL or 5 mg/mL) dissolved in a KRPH buffer containing 100 μM 2-NBDG (2-deoxy-2-[(7-nitro-2,1,3-benzoxadiazol-4-yl)amino]-D-glucose) was added and incubated for 20 minutes (5% […], 37° C.). […] The fluorescence intensity of 2-NBDG, as the fluorescent glucose analogue incorporated into the cells, was measured at an excitation wavelength of 470 nm and a detection wavelength of 550 nm using a microplate reader. The glucose uptake activity was determined based on the following formula as the ratio of the fluorescence intensity (FS) in the case of making the sample solution react when the fluorescence intensity (FC) of the control was taken as 100. […]

As to insulin, the Glucose uptake activity result is “significantly increased”.
